These results are taken from article PMC7465886, “4-(N-Alkyl- and -Acyl-amino)-1,2,4-triazole-3-thione Analogs as Metallo-β-Lactamase Inhibitors: Impact of 4-Linker on Potency and Spectrum of Inhibition” (Biomolecules, 2020).

Where two headings read alike, the source gives them in different places. Where only a bound is given, the exact number is not on record here.

Assay [1] deals with T1, VIM-4 (Pseudomonas aeruginosa, UniProt A0A0F7KYQ8, S205R).
T1 construct: made in house; host or cells: E. coli BL21(DE3) derivative, pET-9a
Briefly: MBL inhibition, reporter substrate method, VIM-4. It counts as biochemical. On the procedure:
(§1) Compounds were prepared in DMSO at a final concentration of 50 mM prior to dilution in the assay buffer. The reaction rate was measured as the variation of absorbance observed upon substrate hydrolysis in a UV-Vis spectrophotometer or microplate reader at a wavelength of 300 nm (imipenem, meropenem), 260 nm (cefotaxime), or 482 nm (nitrocefin) and in the presence of a purified MBL enzyme (such as VIM-1, VIM-2, VIM-4, NDM-1, and IMP-1, at a final concentration ranging from 1 to 70 nM).
(§2) These enzymes were overproduced in derivatives of E. coli BL21(DE3) carrying a pET-9 a (IMP-1, VIM-1, VIM-2, and VIM-4) or pET-15 b (NDM-1) vector into which the metallo-β-lactamase-encoding open reading frame was cloned. Bacterial strains were grown in the auto-inducing medium, ZYP-5052, supplemented with 50 μg/mL kanamycin for 24 h at 37 °C [38]. IMP-1, VIM-1, VIM-2, and VIM-4 were purified by ion-exchange and gel filtration chromatography using an AKTA Purifier platform (GE Healthcare, Uppsala, Sweden) as previously described. NDM-1 (residues 37-270) was produced as an amino-terminal 6 xHis-tag fusion protein and was purified using affinity chromatography. After growth for 26 h at 25 °C, bacterial cells were harvested by centrifugation (10,000× g, 30 min, 4 °C), resuspended in 10 mM HEPES buffer (pH 7.5) containing 0.15 M NaCl (buffer A) in one-fifth of the original culture volume, and lysed by sonication. Cellular debris was removed by centrifugation (12,000× g, 40 min, 4 °C). The clarified sample was loaded on a HisTrap HP column (bed volume, 5 mL; GE Healthcare), followed by a wash step (25 mL) with buffer A containing 20 mM imidazole. Proteins were eluted using buffer A containing 350 mM imidazole. The resulting protein sample was desalted (HiPrep 26/10 Desalting column, GE Healthcare) using 20 mM triethanolamine (pH 7.2) supplemented with 50 μM ZnSO4 and concentrated using an Amicon Ultra-15 (MW cut-off, 10 kDa; Millipore, Burlington, MA, USA). The concentrated sample was loaded on a Superdex 75 prep grade column (XK16/100 column; bed volume, 140 mL; GE Healthcare) and the proteins eluted with buffer A containing 50 μM ZnSO4. The active fractions were pooled and stored at −20 °C. The purity of the protein preparations was estimated >95% by SDS-PAGE analysis. The authenticity of the enzyme preparations was confirmed by electron spray ionization mass spectrometry, as previously described.
(§3) The inhibition constants (Ki) were determined on the basis of a model of competitive inhibition by analyzing the dependence of the ratio v0/vi (v0, hydrolysis velocity in the absence of inhibitor; vi, hydrolysis velocity in the presence of inhibitor) as a function of [I] as already described. The slope of the plot of v0/vi vs. [I], which corresponds to Km^S/(Km^S + [S])Ki (where Km^S is the Km value of the reporter substrate and [S] its concentration in the reaction mixture) and allowed the calculation of the Ki value. Alternatively, a Dixon plot analysis was carried out by measuring the initial hydrolysis rates in the presence of variable concentrations of inhibitor and substrate. This allowed Ki values to be determined and supported the hypothesis that the various compounds behaved as competitive inhibitors of the various tested enzymes. The assays were performed in triplicate.

The target in assay [2] is T2, NDM-1 (Klebsiella pneumoniae, UniProt C7C422). As to the kind of experiment: MBL inhibition, reporter substrate method, NDM-1. The class given is biochemical. The procedure:
as §1, §2, §3

Another assay concerns the target T3, VIM-1 (Pseudomonas aeruginosa, UniProt A0A0F7KYQ8).
T3 construct: made in house; host or cells: E. coli BL21(DE3) derivative, pET-9a
As to the kind of experiment: MBL inhibition, reporter substrate method, VIM-1. It counts as biochemical. On the procedure:
as §1, §2, §3

In assay [3] the target is T4, VIM-2 (Escherichia coli, UniProt Q5U7L7).
T4 construct: made in house; host or cells: E. coli BL21(DE3) derivative, pET-9a
As to the kind of experiment: MBL inhibition, reporter substrate method, VIM-2. The class given is biochemical. The following applies: for Ki: hydrazine and hydrazide series, read-out: Ki Value VIM-2. On the procedure:
as §1, §2, §3

The target of assay [4] is T5, IMP-1 (Serratia marcescens, UniProt P52699).
T5 construct: made in house; host or cells: E. coli BL21(DE3) derivative, pET-9a
As to the kind of experiment: MBL inhibition, reporter substrate method, IMP-1. It counts as biochemical. On the procedure: as §1, §2, §3

A further assay concerns the target T6, L1 (Stenotrophomonas maltophilia, UniProt P52700).
T6 construct: made in house
As to the kind of experiment: MBL inhibition, L1 (nitrocefin hydrolysis). The class given is biochemical. Conditions: for inhibition at 100 µM: 100 μM inhibitor, read-out: Inhibition of L1 (dash). The procedure: (§4) Compounds were prepared as 10 mM solutions in DMSO before dilution with appropriate buffers. Buffers were 25 mM Hepes pH 7.5 for CphA or 25 mM Hepes pH 7.5, 50 µM ZnCl2 for L1. The rates in the absence of inhibitor were not modified by addition of 1% DMSO. CphA and L1 enzymes, purified as previously described, were used at concentrations between 0.2 and 0.8 nM, respectively. The enzyme and the inhibitor (100 µM) were pre-incubated for 30 min in a volume of 495 µL at room temperature. The hydrolysis of a solution of 100 µM imipenem for CphA was monitored by following the absorbance variation at 300 nm using a Specord 50 PLUS spectrophotometer (Analytik Jena, Jena, Germany). For L1, the reporter substrate was nitrocefin (100 µM). The enzyme activity was measured by following the absorbance variation at 482 nm. The substrate hydrolysis was done at 30 °C. The activity was tested by measuring the initial rates in three samples without inhibitor that allowed to determine the percentage of residual β-lactamase activity in the presence of inhibitors. If the residual activity in the presence of 100 µM inhibitor was <30%, the initial rate conditions were used to study the inhibition in the presence of increasing concentrations of compounds (from 1 to 100 µM) and to determine the competitive inhibition constant Ki. The Hanes linearization of the Henri–Michaelis equation was used, and Ki was calculated on the basis of the following equation, v = (Vmax.S)/[S + Km(1 + I/Ki)]. The assays were performed in triplicates.

A further assay has as its target T7, CphA (Aeromonas hydrophila, UniProt P26918).
T7 construct: made in house
As to the kind of experiment: MBL inhibition, CphA (imipenem hydrolysis). The class given is biochemical. On the procedure: as §4, with “If the residual activity in the presence of 100 µM inhibitor was <30%, the initial rate conditions were used to study the inhibition in the presence of increasing concentrations of compounds (from 1 to 100 µM) and to determine the competitive inhibition constant Ki.” left out, “The assays were performed in triplicates.” left out

In assay [5] the test system is E. coli LZ2310(pLBII-VIM-2). Briefly: microbe, parasite or virus in culture. The following applies: for Restoration of cefoxitin activity (in words): 30 μg cefoxitin disk, compound 1 at 48 μg, EUCAST clinical breakpoints; for zone of inhibition at 40 µg/disc / zone of inhibition at 120 µg/disc: Escherichia coli, read-out: Inhibition Zone Diameter. The class given is cell-based, Escherichia coli. On the procedure: (§5) The potential activity of selected compounds was assessed by the agar disk-diffusion method, according to the CLSI (Clinical Laboratory Standard Institute) recommendations, using Mueller–Hinton medium. The inhibitor (dissolved in DMSO) was added (maximum volume of 15 μL) to a commercially available disk containing a defined amount of a β-lactam antibiotic (30 μg of cefoxitin (Oxoid, Milan, Italy)). After incubation (18 h at 35 °C), the diameter of the growth inhibition zone was measured and compared to that obtained in the absence of inhibitor. DMSO and EDTA (220 μg) were used as negative and positive controls, respectively. Experiments were performed in triplicate.
These tests were performed on an isogenic laboratory strain obtained after transforming Escherichia coli LZ2310 strain with a derivative of the high copy number plasmid pLB-II carrying the cloned blaVIM-2 gene harboring a cloned gene encoding the functional metallo-β-lactamase. Strain LZ2310 is a triple knockout mutant derived from K12 in which the genes encoding for components of the three major efflux pump systems were inactivated (genotype, ∆norE ∆mdfA N43 acrA1) and was used to generate an hyperpermeable background for MBL production and investigate the potential contribution of such mechanisms to inhibitor efflux.

The subject of assay [6] is VIM-4-producing laboratory strain. As to the kind of experiment: Disk diffusion on VIM-4-producing laboratory strain. It counts as cell-based. The procedure: as §5
Assay [7] addresses T4, VIM-2. The following applies: Schiff base analogs; read-out: Ki Value VIM-2, hydrazone-like compound (converted); cited from earlier work.
The target of assay [8] is T1, VIM-4. Details: method as in PMID 32937203. The following applies: Figure 1; read-out: Ki VIM-4, Schiff base; cited from earlier work.
In assay [9] the target is T2, NDM-1. Details: method as in PMID 32937203. The following applies: Schiff base analogs; read-out: Ki Value NDM-1, hydrazone-like compound (converted); cited from earlier work.
Assay [10] deals with T5, IMP-1. Details: method as in PMID 32937203. Conditions: in parentheses; 100 μM inhibitor; cited from earlier work.
[11] abbreviates: read-out: Inhibition of NDM-1 (dash in Ki column).
Setting [12] is: read-out: Inhibition of VIM-1 (dash).
[13] abbreviates: read-out: Inhibition of IMP-1 (dash in Ki column).

T6 sequence (P52700 34-290): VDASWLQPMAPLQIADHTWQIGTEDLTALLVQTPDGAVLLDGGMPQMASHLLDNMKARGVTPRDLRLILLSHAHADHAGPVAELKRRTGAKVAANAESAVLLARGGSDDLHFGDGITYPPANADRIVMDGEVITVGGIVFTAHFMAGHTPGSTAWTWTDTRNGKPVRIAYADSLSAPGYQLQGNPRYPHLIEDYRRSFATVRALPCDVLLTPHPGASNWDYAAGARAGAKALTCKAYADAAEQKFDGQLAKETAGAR
T2 sequence (C7C422 37-270 limits assumed): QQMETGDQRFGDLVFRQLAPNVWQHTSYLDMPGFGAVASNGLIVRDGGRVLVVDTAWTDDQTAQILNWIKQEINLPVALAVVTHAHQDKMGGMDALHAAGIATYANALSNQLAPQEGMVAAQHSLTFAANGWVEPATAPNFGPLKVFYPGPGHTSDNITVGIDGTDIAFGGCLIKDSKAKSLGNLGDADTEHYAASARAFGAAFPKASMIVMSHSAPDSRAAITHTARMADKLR
T5 sequence (P52699 19-246 limits assumed): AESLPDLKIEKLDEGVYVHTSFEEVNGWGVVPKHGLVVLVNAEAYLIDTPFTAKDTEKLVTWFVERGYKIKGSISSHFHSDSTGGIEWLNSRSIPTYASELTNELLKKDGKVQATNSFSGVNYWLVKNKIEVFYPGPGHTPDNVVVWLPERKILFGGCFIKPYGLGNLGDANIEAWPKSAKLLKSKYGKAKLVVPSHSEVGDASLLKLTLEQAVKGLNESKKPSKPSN
T7 sequence (P26918 28-254): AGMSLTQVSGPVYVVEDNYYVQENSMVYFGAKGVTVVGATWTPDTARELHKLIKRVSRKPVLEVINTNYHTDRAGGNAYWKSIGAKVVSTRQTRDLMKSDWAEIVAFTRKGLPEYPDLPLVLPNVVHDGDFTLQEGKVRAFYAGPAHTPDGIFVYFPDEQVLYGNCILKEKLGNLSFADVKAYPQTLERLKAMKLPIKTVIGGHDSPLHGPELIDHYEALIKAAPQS

`Cc1ccccc1-c1n[nH]c(=S)n1NCc1ccccc1C(=O)O` [Compound 2]: the inhibition constant (Ki) at VIM-4 [1] worked out at 10 ± 1 µM; on VIM-2 [3], 8 ± 0.7 µM; on L1 it was 110 ± 10 µM; at CphA, 100 ± 10 µM. Besides, the inhibition at 100 µM was less than 40% at NDM-1 [2] (setting [11]), less than 30% at VIM-1 (setting [12]) and less than 40% at IMP-1 [4] (setting [13]). In addition, in assay [5], the “Restoration of cefoxitin activity (in words)” value is “did not show any remarkable activity”. For the same compound, the zone of inhibition at 40 µg/disc in [5] came out at 11 mm.
Turning to `O=C(O)c1ccccc1CNn1c(-c2cccc(-c3ccccc3)c2)n[nH]c1=S` [Compound 3], the inhibition constant (Ki) came to 0.57 ± 0.03 µM at VIM-4 [1]; 8.2 ± 0.7 µM on NDM-1 [2] (hydrazine series, read-out: Ki Value NDM-1); 3.6 ± 0.2 µM on VIM-1; 0.24 ± 0.02 µM at VIM-2 [3]; 76 ± 13 µM at IMP-1 [4] (hydrazine series, read-out: Ki Value IMP-1). Also, in [6], the “Restoration of β-lactam activity (in words)” value is “lack of restoration activity”. Also, the “Restoration of cefoxitin activity (in words)” value in assay [5] is given as “devoid of activity”. The zone of inhibition at 120 µg/disc in assay [5] was found to be 11 mm.
Consider `O=C(O)c1ccccc1CNn1c(-c2ccc3ccccc3c2)n[nH]c1=S` [Compound 4], for which the results for the Ki at VIM-4 [1] and at VIM-2 [3] were 6.3 ± 0.7 µM and 4.2 ± 0.9 µM, respectively. The inhibition at 100 µM is less than 40% on NDM-1 [2] (setting [11]); 32% at VIM-1 (read-out: Percentage of Inhibition at 100 μM Inhibitor, VIM-1); less than 40% at IMP-1 [4] (setting [13]); less than 30% at L1. The “Restoration of cefoxitin activity (in words)” value in [5] is reported as “did not show any remarkable activity”. Besides, the zone of inhibition at 120 µg/disc in assay [5] stood at 10 mm.
As to `O=C(O)c1ccccc1CNn1c(Cc2ccccc2)n[nH]c1=S` [Compound 6], the inhibition at 100 µM is less than 30% on VIM-4 [1] (read-out: Inhibition of VIM-4 (dash)); less than 40% on NDM-1 [2] (setting [11]); less than 30% on VIM-1 (setting [12]); less than 40% on IMP-1 [4] (setting [13]); less than 30% at L1. Further, the inhibition constant (Ki) on VIM-2 [3] stood at 8.5 ± 2.3 µM. In addition, the “Restoration of cefoxitin activity (in words)” value in assay [5] is recorded as “did not show any remarkable activity”. In addition, the zone of inhibition at 40 µg/disc in assay [5] stood at 10 mm.
For `O=C(O)c1ccccc1CNn1c(Cc2ccc3ccccc3c2)n[nH]c1=S` [Compound 7], the inhibitory constant (Ki) amounted to 4.7 ± 0.3 µM on VIM-4 [1], 19.5 ± 1.3 µM at VIM-1 and 1.8 ± 0.2 µM on VIM-2 [3]. Besides, the inhibition at 100 µM at NDM-1 [2] (setting [11]) and at IMP-1 [4] (setting [13]) was less than 40% throughout. Also, in [5], the “Restoration of cefoxitin activity (in words)” value is reported as “did not show any remarkable activity”. Besides, the zone of inhibition at 120 µg/disc in assay [5] is 11 mm.
Turning to `O=C(O)c1ccccc1C(=O)Nn1c(-c2cccc(-c3ccccc3)c2)n[nH]c1=S` [Compound 19], the inhibition at 100 µM on VIM-4 [1] (read-out: Percentage of Inhibition at 100 μM Inhibitor, VIM-4) is 41%; on NDM-1 [2] (read-out: Percentage of Inhibition at 100 μM Inhibitor, NDM-1), 42%; at VIM-1 (setting [12]), less than 30%; at VIM-2 [3] (read-out: Percentage of Inhibition at 100 μM Inhibitor, VIM-2), 36%; on IMP-1 [4] (read-out: Percentage of Inhibition at 100 μM Inhibitor, IMP-1), 40%.
For `O=C(O)c1ccccc1/C=N/n1c(-c2ccccc2)n[nH]c1=S` [JMV4390], the inhibition constant (Ki) on VIM-2 [7] is 2.7 µM; on VIM-4 [8] it was 1.4 µM; at NDM-1 [9] it was 38 µM. For the same compound, the “Inhibition of IMP-1 (dash in Ki column), corresponding hydrazone-like compound” value at IMP-1 [10] was “-^2 (-) (<40% of inhibition in the presence of 100 μM inhibitor)”.
